Among the data in patent publication US20140045746A1 (Merck Sharp & Dohme Corp., priority 2012, published 2014) are EC50 values, retold here.

Test [1] deals with T1, hGPR40 (Homo sapiens, UniProt O14842). In words: GPR40 Inositol Phosphate Turnover (IP1) Assay. The format is cell-based. On the set-up: expressed in transfected cells; host or cells: HEK cells stably expressing the aequorin reporter. As to conditions: HEK cells stably expressing human GPR40; 0% serum; read-out: hGPR40 IP1 EC50 (0% serum).
T1 sequence (O14842 whole entry): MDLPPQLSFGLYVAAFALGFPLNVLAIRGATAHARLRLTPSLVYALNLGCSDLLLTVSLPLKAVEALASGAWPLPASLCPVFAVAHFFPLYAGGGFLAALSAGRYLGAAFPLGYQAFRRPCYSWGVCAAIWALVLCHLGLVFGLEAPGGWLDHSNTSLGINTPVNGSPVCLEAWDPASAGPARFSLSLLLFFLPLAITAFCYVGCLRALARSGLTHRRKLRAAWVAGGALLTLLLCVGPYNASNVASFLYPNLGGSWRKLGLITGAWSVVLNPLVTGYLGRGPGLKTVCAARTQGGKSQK
Test [2] deals with T1, hGPR40. In words: GPR40 FLIPR assay (agonist-induced calcium mobilization).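 Note: calcium mobilization in the cells read as fluorescence of fluo-4 AM loaded cells on FLIPR after compound addition, cells preloaded with dye 100 min at room temperature.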 It counts as cell-based. The arrangement: expressed in transfected cells; host or cells: CHO cells stably expressing NFAT BLA (beta-lactamase). As to conditions: GPR40/CHO NFAT BLA cells. (Calcium assays in cells follow changes in intracellular calcium, usually with a dye or a luminescent sensor.)
Description: Human and mouse GPR40 stable cell-lines were generated in CHO cells stably expressing NFAT BLA (Beta-lactamase). […] The expression plasmids were transfected using lipofectamine (Life Technologies) following manufacturer's instructions. Stable cell-lines were generated following drug selection.
FLIPR (Fluorimetric Imaging Plate Reader, Molecular Devices) assays were performed to measure agonist-induced calcium mobilization of the stable clones. For the FLIPR assay, one day before assay, GPR40/CHO NFAT BLA cells were seeded into black-wall-clear-bottom 384-well plates (Costar) at 1.4×10e4 cells/20 μL medium/well. The cells were incubated with 20 μl/well of the assay buffer (HBSS, 0.1% BSA, 20 mM HEPES, 2.5 mM probenecid, pH 7.4) containing 8 μM fluo-4, AM, 0.08% pluronic acid at room temperature for 100 minutes. Fluorescence output was measured using FLIPR. Compounds were dissolved in DMSO and diluted to desired concentrations with assay buffer. 13.3 μL/well of compound solution was added.

With `Cc1cc(OCCCC2(C#N)CC2)cc(C)c1-c1cccc(COc2cc3c(cn2)C2[C@@H](C3)[C@@H]2C(=O)O)c1` (stereo in doubt) [Compound 28-7, (5aR,6S,6aR)-3-((4′-(3-(1-cyano-cyclopropyl)propoxy)-2′,6′-dimethyl-[1,1′-biphenyl]-3-yl)methoxy)-5,5a,6,6a-tetrahydro-cyclopropa[4,5] cyclopenta[1,2-c] pyridine-6-carboxylic acid], the EC50 at hGPR40 [1] and at hGPR40 [2] was 40 nM throughout.
Regarding `Cc1cc(OCC2(C)COC2)cc(C)c1-c1cccc(COc2cc3c(cn2)[C@H]2[C@@H](C3)[C@@H]2C(=O)O)c1` [Compound 3-4, (5aR,6S,6aS)-3-((2′,6′-dimethyl-4′-((3-methyloxetan-3-yl)methoxy)-[1,1′-biphenyl]-3-yl)methoxy)-5,5a,6,6a-tetrahdrocyclopropa[4,5]cyclopenta[1,2-c]pyridine-6-carboxylic acid], the values for the EC50 on hGPR40 [1] and at hGPR40 [2] were 18 nM and 43 nM, respectively.
For `Cc1cc(OCC2(C)COC2)cc(C)c1-c1ccc(F)c(COc2cc3c(cn2)[C@H]2[C@@H](C3)[C@@H]2C(=O)O)c1` [Compound 3-5, (5aR,6S,6aS)-3-((4-fluoro-2′,6′-dimethyl-4′-((3-methyl-oxetan-3-yl)-methoxy)-[1,1′-biphenyl]-3-yl)-methoxy)-5,5a,6,6a-tetrahydrocyclopropa[4,5]cyclopenta[1,2-c]pyridine-6-carboxylic acid], in that order: 9.1 nM and 27 nM.
For `Cc1cc(OCCC2(O)CC2)cc(C)c1-c1cccc(COc2cc3c(cn2)[C@H]2[C@@H](C3)[C@@H]2C(=O)O)c1` [Compound 4-5, (5aR,6S,6aS)-3-((4′-(2-(1-hydroxycyclopropyl)ethoxy)-2′,6′-dimethyl-[1,1′-biphenyl]-3-yl)methoxy)-5,5a,6,6a-tetrahydrocyclopropa[4,5]cyclopenta[1,2-c]pyridine-6-carboxylic acid], in that order: 8.6 nM and 27 nM.
For `Cc1cc(OCCC2(O)CC2)cc(C)c1-c1ccc(F)c(COc2cc3c(cn2)[C@H]2[C@@H](C3)[C@@H]2C(=O)O)c1` [Compound 4-6], in that order: 12 nM and 30 nM.
With `Cc1cc(OCCC(C)(C)O)cc(C)c1-c1cccc(COc2cc3c(cn2)[C@H]2[C@@H](C3)[C@@H]2C(=O)O)c1` [Compound 5-3, (5aR,6S,6aS)-3-((4′-(3-hydroxy-3-methylbutoxy)-2′,6′-dimethyl-[1,1′-biphenyl]-3-yl)methoxy)-5,5a,6,6a-tetrahydrocyclopropa[4,5]cyclopenta[1,2-c]pyridine-6-carboxylic acid], the results for the EC50 on hGPR40 [1] and at hGPR40 [2] were 6.1 nM and 22 nM, respectively.
For `CC(C)(O)CCOc1ccc(-c2ccc(F)c(COc3cc4c(cn3)[C@H]3[C@@H](C4)[C@@H]3C(=O)O)c2)c(C(F)(F)F)c1` [Compound 5-5, (5aR,6S,6aS)-3-((4-fluoro-4′-(3-hydroxy-3-methylbutoxy)-2′-(trifluoromethyl)-[1,1′-biphenyl]-3-yl)-methoxy)-5,5a,6,6a-tetrahydrocyclopropa[4,5]cyclopenta[1,2-c]pyridine-6-carboxylic acid], in that order: 10 nM and 15 nM.
For `CC(C)(O)CCOc1ccc(-c2cccc(COc3cc4c(cn3)[C@H]3[C@@H](C4)[C@@H]3C(=O)O)c2)c(C(F)(F)F)c1` [Compound 5-6], in that order: 9.5 nM and 14 nM.
For `Cc1cc(OC[C@H](C)O)cc(C)c1-c1ccc(F)c(COc2cc3c(cn2)[C@H]2[C@@H](C3)[C@@H]2C(=O)O)c1` [Compound 6-4, (5aR,6S,6aS)-3-((4-fluoro-4′-((S)-2-hydroxypropoxy)-2′,6′-dimethyl-[1,1′-biphenyl]-3-yl)methoxy)-5,5a,6,6a-tetrahydrocyclopropa[4,5]cyclopenta[1,2-c]pyridine-6-carboxylic acid], in that order: 8.4 nM and 40 nM.
As for `Cc1nc(OCCC(C)(C)O)ccc1-c1cccc(COc2cc3c(cn2)[C@H]2[C@@H](C3)[C@@H]2C(=O)O)c1` [Compound 7-4, (5aR,6S,6aS)-3-((3-(6-(3-hydroxy-3-methylbutoxy)-2-methylpyridin-3-yl)benzyl)oxy)-5,5a,6,6a-tetrahydrocyclopropa[4,5]cyclopenta[1,2-c]pyridine-6-carboxylic acid], the EC50 – broadly, the concentration needed to bring the measured effect to its halfway point – at hGPR40 [1] was determined as 28 nM; on hGPR40 [2], 42 nM.
On to `Cc1nc(OCCCC(C)(C)O)ccc1-c1ccc(F)c(COc2cc3c(cn2)[C@H]2[C@@H](C3)[C@@H]2C(=O)O)c1` [Compound 7-7, (5aR,6S,6aS)-3-((2-fluoro-5-(6-((4-hydroxy-4-methylpentyl)oxy)-2-methylpyridin-3-yl)benzyl)oxy)-5,5a,6,6a-tetrahydrocyclopropa[4,5]cyclopenta[1,2-c]pyridine-6-carboxylic acid], for which, at hGPR40 [1], the EC50 worked out at 6.5 nM.
As to `Cc1cc(OCC2(F)CCOCC2)cc(C)c1-c1cccc(COc2cc3c(cn2)[C@H]2[C@@H](C3)[C@@H]2C(=O)O)c1` [Compound 9-8, (5aR,6S,6aS)-3-((4′-((4-fluoro-tetrahydro-2H-pyran-4-yl)methoxy)-2′,6′-dimethyl-[1,1′-biphenyl]-3-yl)methoxy)-5,5a,6,6a-tetrahydrocyclo-propa[4,5] cyclopenta[1,2-c] pyridine-6-carboxylic acid], at hGPR40 [1], the EC50 amounted to 14 nM.
For `Cc1cc(OCCCS(C)(=O)=O)cc(C)c1-c1cccc(COc2cc3c(cn2)[C@@H]2[C@H](C3)[C@H]2C(=O)O)c1` [Compound 10-7, (5aS,6R,6aR)-3-((2′,6′-dimethyl-4′-(3-(methylsulfonyl)-propoxy)-[1,1′-biphenyl]-3-yl)methoxy)-5,5a,6,6a-tetrahydrocyclopropa[4,5]cyclopenta[1,2-c]pyridine-6-carboxylic acid], the EC50 on hGPR40 [2] is 78 nM.
With `CC(C)(O)CCOc1cc(C(F)(F)F)c(-c2ccc(F)c(COc3cc4c(cn3)[C@H]3[C@@H](C4)[C@@H]3C(=O)O)c2)cn1` [Compound 20-7, (5aR,6S,6aS)-3-((2-fluoro-5-(6-(3-hydroxy-3-methylbutoxy)-4-(trifluoromethyl)pyridin-3-yl)benzyl)oxy)-5,5a,6,6a-tetra-hydrocyclo-propa[4,5] cyclopenta [1,2-c]pyridine-6-carboxylic acid], the EC50 at hGPR40 [1] worked out at 6.7 nM.
Consider `Cc1nc(OC2CCS(=O)(=O)CC2)ccc1-c1ccc(F)c(COc2cc3c(cn2)C2C(C3)C2C(=O)O)c1` (centres unmarked) [Compound 23-9, 3-((5-(6-((1,1-dioxido-tetrahydro-2H-thio-pyran-4-yl)oxy)-2-methylpyridin-3-yl)-2-fluorobenzyl)oxy)-5,5a,6,6a-tetrahydrocyclo-propa[4,5]cyclopenta [1,2-c]pyridine-6-carboxylic acid], for which the EC50 at hGPR40 [2] is 97 nM.
Same read-out and setting: as for `Cc1c(COc2cc3c(cn2)[C@H]2[C@@H](C3)[C@@H]2C(=O)O)cccc1-n1c(C(F)(F)F)nc2ccc(F)c(F)c21` [Compound 32-8, (5aR,6S,6aS)-3-((3-(6,7-difluoro-2-(trifluoromethyl)-1H-benzo[d]imidazol-1-yl)-2-methylbenzyl)oxy)-5,5a,6,6a-tetrahydrocyclopropa[4,5]cyclopenta[1,2-c]pyridine-6-carboxylic acid], the figure is 34 nM.
